Data on 2 compounds can be found in patent publication US20100239563A1 (priority 2001, published 2010).

For test [1], the system named is influenza A virus strain fowl plague virus A/Fpv/Bratislava/79. The format is cell-based.
Test [2] deals with influenza A virus strain fowl plague virus A/Fpv/Bratislava/79 (H7N7). The format is cell-based.

On to `Oc1ccc(-c2nc(-c3ccc(F)cc3)c(-c3ccncc3)[nH]2)cc1` [SB202190, 4-(4-fluorophenyl)-2-(4-hydroxyphenyl)-5-(4-pyridyl) 1H-imidazole], for which the “virus multiplication vs cells not treated with SB202190” value in test [1] was “significantly inhibited”.

Regarding `N#CC(=C(N)Sc1ccccc1N)C(C#N)=C(N)Sc1ccccc1N` [U0126, 1,4-diamino-2,3-dicyano-1,4-bis(2-aminophenylthio)butadiene], in test [2], the “virus multiplication vs cells not treated with U0126” value is “significantly inhibited”.
